According to US20200022963A1, “PHARMACEUTICAL COMPOSITION COMPRISING BETAHISTINE” (Otolanum AG, priority 2017, published 2020):
Like-named read-outs stand apart in the source and are kept apart here.

Tests used:
[1] = Tolerability of intranasal betahistine in beagle dogs, Example 5; assay type: in vivo; settings: dog
Procedure: In this study, the pharmacokinetic profile of betahistine was evaluated after a single dose administration of betahistine in male and female beagle dogs (age 5-7 months; weight of 5-11 kg, within a range of 3 kg for each sex) for three routes of administration: oral, intranasal, and intravenous.
On Day 8 of the study, the animals that received oral BH at a dose of 12 mg/kg were administered the test betahistine composition intranasally at a dose of 40 mg betahistine dihydrochloride; the animals that received oral BH at a dose of 24 mg/kg were administered the test betahistine composition intranasally at a dose of 80 mg betahistine dihydrochloride; and the animals that received oral BH at a dose of 48 mg/kg were administered the test betahistine composition intranasally at a dose of 120 mg betahistine dihydrochloride. The test betahistine composition was delivered intranasally in a single dose via an Aptar nasal spray pump device at a total dose level of 40, 80 and 120 mg of betahistine dihydrochloride. Plasma samples were collected prior to dosing, and then at 5, 10, 20 and 30 min, 1, 2, 3, 6, 24 hours after dosing.

[2] = Relative bioavailability of intranasal versus oral betahistine in humans, Example 6; assay type: in vivo; settings: human
Procedure: (Journal of Psychopharmacology, 2016, Vol. 30(3) 237-241). In brief, in this study, forty-eight healthy women were recruited and randomized to receive per os (i.e. orally) either betahistine 144 mg/day (48 mg t.i.d.) or matching placebo for 4 weeks. […] Study medication (betahistine or matching placebo) was administered at least 30 minutes prior to eating. On Day 8, blood samples of 6 mL each were collected at 8 am, and 30, 60, 150 and 300 minutes thereafter. Plasma concentrations of betahistine and its metabolite 2-PAA were determined by high-performance liquidy chromatography.

[3] = Oral betahistine study in healthy women, Barak et al.; assay type: in vivo; settings: human, oral 48 mg (0.8 mg/kg), Barak et al. data
Procedure: For the calculation of the relative bioavailability of intranasal betahistine compared to peroral betahistine, the area under the concentration-time curve (AUC) determined in Example 3 was compared to the AUC determined in a study with oral betahistine in healthy volunteers described in Barak et al. (Journal of Psychopharmacology, 2016, Vol. 30(3) 237-241). In brief, in this study, forty-eight healthy women were recruited and randomized to receive per os (i.e. orally) either betahistine 144 mg/day (48 mg t.i.d.) or matching placebo for 4 weeks. Their mean weight was 60.2 kg in the active-treated group (n=24) and 59.8 kg in the placebo group (n=24). Study medication (betahistine or matching placebo) was administered at least 30 minutes prior to eating. On Day 8, blood samples of 6 mL each were collected at 8 am, and 30, 60, 150 and 300 minutes thereafter. Plasma concentrations of betahistine and its metabolite 2-PAA were determined by high-performance liquidy chromatography.

[4] = both, beagle, dog, in vivo, 1 h
Procedure: The safety and pharmacokinetic profile of intranasal betahistine was first evaluated in a single dose toxicology study in male and female beagle dogs (14-21 months of age, weight 8.2-11.8 kg). Both the vehicle and test article were delivered in a single dose via a nasal spray pump (Aptar Classic Line) with a delivery volume of 100 μL into both nostrils at total dose levels of 0 (vehicle), 4, 20 or 80 mg of betahistine dihydrochloride. Each treatment group was made up of 1 dog/sex.
Plasma concentrations were measured with liquid chromatographic tandem mass spectrometry (LC-MS/MS; SCIEX API 5000 for betahistine and SCIEX API 4000 for 2-pyridylacetic acid (2-PAA)) with a validated method. Betahistine-^13CD3 dihydrochloride and 2-PAA-D4 hydrochloride served as internal standards. The standard calibration range—using a plasma sample volume of 0.05 mL—for betahistine was 0.05 to 50 ng/mL and for 2-PAA it was 1 to 1000 ng/mL. The limit of quantitation was 0.05 ng/mL for betahistine and 1.0 ng/mL for 2-PAA.
In case of betahistine, the method involved a liquid-liquid extraction; in case of 2-PAA it involved protein precipitation. For betahistine, plasma samples were extracted under basic conditions with an organic solvent; the organic phase was dried and reconstituted in reconstitution solvent. Approximately 0.1 mL of the aqueous layer was transferred into polypropylene vials for LC-MS/MS analysis. For 2-PAA, plasma samples were precipitated with a mixture of organic solvents, supernatant was diluted and 0.12 mL was transferred into polypropylene vials for LC-MS/MS analysis. Sample analysis was conducted using reversed phase chromatography.

[5] = human, cited from earlier work
[6] = Single ascending-dose clinical trial of intranasal betahistine in healthy volunteers (plasma pharmacokinetics, LC-MS/MS); settings: human; for half-life / AUC / AUC(0-inf) / AUC(0-t) / Cmax / Tmax: both, plasma, inhaled or intranasal
Procedure: The safety and pharmacokinetic profile of intranasal betahistine was further evaluated in a double-blind, randomized, placebo-controlled, single ascending-dose clinical trial involving a total of 32 healthy male and female volunteers. The main inclusion criteria were that subjects had to be aged 18-45 years and show a body mass index within the range of 18-30 kg/m^2. Subjects were required to fast for 8 hours prior to study drug administration and for 2 hours post-dose.
The betahistine was supplied as a 50 and 200 mg/mL solution in a HDPE bottle and spray pump pack (Aptar Classic Line) that delivers an accurate 100 μL per actuation. The study drug was delivered into the right nostril of subjects while they were in a supine position. For the 5 and 20 mg doses, one application of 50 and 200 mg/mL, respectively, was needed, whereas for the 10 and 40 mg doses, two applications of 50 and 200 mg/mL were required.
Serial blood samples were collected through 24 hours, following dosing on Day 1, at Day 4 and Day 7 to determine concentrations of betahistine and its main metabolite, 2-PAA in plasma. Plasma samples were assayed for BH content using validated procedures and methods. Blood samples (6 mL) were collected into tubes containing K2EDTA and were centrifuged at approximately 2000 g for 10 minutes at +4° C. and the resultant plasma transferred into 2 clean, labelled 2 mL cryovials. All plasma samples were stored at −70° C. or below until all samples had been collected and sent as a single batch for analysis. […] Concentrations were determined using liquid chromatographic tandem mass spectrometry (LC-MS/MS; SCIEX API 5000 for betahistine and SCIEX API 4000 for 2-PAA) with a validated method. Betahistine-^13CD3 dihydrochloride and 2-PAA-D4 hydrochloride served as internal standards. The standard calibration range—using a plasma sample volume of 0.2 and 0.1 mL, respectively—for betahistine was 10 to 800 pg/mL and for 2-PAA it was 2 to 2000 ng/mL. The limit of quantitation was 10 pg/mL for betahistine and 2.0 ng/mL for 2-PAA.
In case of betahistine, the method involved a liquid-liquid extraction; in case of 2-PAA it involved protein precipitation. For betahistine, plasma samples were extracted under basic conditions with an organic solvent; the organic phase was dried and reconstituted in reconstitution solvent. Approximately 0.120 mL of the aqueous layer was transferred into polypropylene vials for LC-MS/MS analysis. For 2-PAA plasma samples were precipitated with a mixture of organic solvents, supernatant was diluted and 0.120 mL was transferred into polypropylene vials for LC-MS/MS analysis. Sample analysis was conducted using reversed phase chromatography.
For each subject who completed the study, plasma concentration-time data of betahistine and 2-PAA were used for the calculation of the following pharmacokinetic parameters: • Cmax Maximum observed plasma concentration obtained directly from the data. • tmax Time to maximum observed concentration, taken directly from the data. If the maximum plasma concentration occurred at more than one time point, the first was chosen. • AUC0-last Area under the plasma concentration versus time curve, calculated using the linear trapezoidal rule from time 0 to time t, where t is the time of last quantifiable concentration. • λz Terminal elimination rate constant obtained from the slope of the line, fitted by linear least squares regression through the terminal points of the logarithmic concentration-time profiles (sometimes also referred to as kel). • AUC0-inf Area under the plasma concentration versus time curve from zero to infinity, calculated as (AUC0-t+Ct/λz), where Ct is the last quantifiable concentration. • t1/2 Apparent terminal half-life, calculated as t1/2=ln(2)/λz.
Dose normalized parameters Cmax/Dose and AUC/Dose were also calculated.

Q: With `CNCCc1ccccn1` [betahistine] as the compound, how does the salivation ([1]; highest concentration betahistine group) read?
A: The salivation was “salivation was noted in most animals”.

Q: What about the sneezing ([1]; highest dose level) of the same compound?
A: Its sneezing is 2/8.

Q: What about the “bioavailability with intranasal administration higher than with oral administration” value [2] of the same compound?
A: The value was 20-40 times.

Q: And the “relative bioavailability fold factor” value ([2]; 40 mg intranasal vs. 48 mg per os)?
A: Its value is 41.1 ×.

Q: And the “relative bioavailability of oral vs. intranasal” value ([2]; Barak et al. oral AUC vs Example 3 intranasal AUC)?
A: The value was “approximately 2.4%”.

Q: What about the “Rel. Bioavail.” value ([2]; intranasal 5 mg relative to oral 48 mg (Barak et al.)) of the same compound?
A: The value was 19.9.

Q: And the “Rel. Bioavail.” value ([2]; intranasal 10 mg relative to oral 48 mg (Barak et al.))?
A: The value was 24.2.

Q: And the “Rel. Bioavail.” value ([2]; intranasal 20 mg relative to oral 48 mg (Barak et al.))?
A: The value was 37.0.

Q: And the “Rel. Bioavail.” value ([2]; intranasal 40 mg relative to oral 48 mg (Barak et al.))?
A: The value was 41.1.

Q: And the AUC/Dose [3]?
A: Its AUC/Dose is 0.15 (h · ng/mL)/(mg/kg).

Q: And the “decline of plasma concentration” value [4]?
A: Its value is “more than 90%”.

Q: And the AUC ([5]; oral 48 mg (0.8 mg/kg), Barak et al. data)?
A: The AUC was 0.121 ng·h/mL.

Q: And the “AUC(0-5h)” value ([5]; oral 48 mg t.i.d., approximately 0.8 mg/kg, Day 8, Barak et al.)?
A: Its value is 0.121 ng·h/mL.

Q: And the half-life [6]?
A: The half-life was under 60 min.

Q: And the AUC ([6]; 0.07 mg/kg)?
A: Its AUC is 0.209 ng·h/mL.

Q: What about the AUC ([6]; 0.15 mg/kg) of the same compound?
A: The AUC was 0.533 ng·h/mL.

Q: What about the AUC ([6]; 0.29 mg/kg) of the same compound?
A: The AUC was 1.61 ng·h/mL.

Q: And the AUC ([6]; 0.57 mg/kg)?
A: Its AUC is 3.53 ng·h/mL.

Q: What about the AUC(0-inf) ([6]; 5 mg) of the same compound?
A: Its AUC(0-inf) is 0.277 ng·h/mL.

Q: What about the AUC(0-t) ([6]; 5 mg) of the same compound?
A: The AUC(0-t) was 0.209 ng·h/mL.

Q: And the Cmax ([6]; 5 mg)?
A: Its Cmax is 0.638 ng/mL.

Q: And the Tmax ([6]; 5 mg)?
A: The Tmax was 12.5 min.

Q: And the half-life ([6]; 5 mg)?
A: Its half-life is 12.5 min.

Q: And the AUC(0-inf) ([6]; 10 mg)?
A: Its AUC(0-inf) is 0.697 ng·h/mL.

Q: What about the AUC(0-t) ([6]; 10 mg) of the same compound?
A: The AUC(0-t) was 0.533 ng·h/mL.

Q: What about the Cmax ([6]; 10 mg) of the same compound?
A: Its Cmax is 2.11 ng/mL.

Q: And the Tmax ([6]; 10 mg)?
A: The Tmax was 10 min.

Q: And the half-life ([6]; 10 mg)?
A: Its half-life is 53 min.

Q: What about the AUC(0-inf) ([6]; 20 mg) of the same compound?
A: Its AUC(0-inf) is 1.63 ng·h/mL.

Q: And the AUC(0-t) ([6]; 20 mg)?
A: The AUC(0-t) was 1.61 ng·h/mL.

Q: What about the Cmax ([6]; 20 mg) of the same compound?
A: Its Cmax is 4.11 ng/mL.

Q: What about the Tmax ([6]; 20 mg) of the same compound?
A: The Tmax was 10 min.

Q: And the half-life ([6]; 20 mg)?
A: Its half-life is 31.1 min.

Q: And the AUC(0-inf) ([6]; 40 mg)?
A: The AUC(0-inf) was 2.94 ng·h/mL.

Q: And the AUC(0-t) ([6]; 40 mg)?
A: Its AUC(0-t) is 3.53 ng·h/mL.

Q: And the Cmax ([6]; 40 mg)?
A: The Cmax was 10.5 ng/mL.

Q: And the Tmax ([6]; 40 mg)?
A: The Tmax was 7.5 min.

Q: And the half-life ([6]; 40 mg)?
A: The half-life was 55.6 min.

Q: What about the “peak concentration in plasma” value ([6]; intranasal 20 mg) of the same compound?
A: Its value is 4.1 ng/mL.

Q: What about the “peak concentration in plasma” value ([6]; intranasal 40 mg) of the same compound?
A: Its value is 10.5 ng/mL.
